Measured values reported in patent publication US11351134B2, “Small molecule agents, compositions, and formulations, for internal use, displaying inhibitory activity against gram-positive and/or gram-negative organisms” (NATUREZA, INC., priority 2017, dated 2022).
Like-named read-outs stand apart in the source and are kept apart here.

Key:
[1] = test system: representative bacteria tested in vitro, whether Gram-positive or Gram-negative; assay: In vitro growth inhibition of active component suspended in chloroform, mixed with water, chloroform evaporated; assay type: cell-based; conditions: pH neutral or acidic, no lecithin or chitosan
Description: In another preparation, each of the lauric acid derivatives of TABLE 4 was independently suspended in an organic solvent, chloroform, and then mixed with water, generally under agitated conditions. This was followed by chloroform evaporation, generally under vacuum, using a freeze dryer. The same preparations were evaluated against the positive control, decanoic acid. Here, for all samples, the amount of water to the amount of chloroform was at least 2:1, and was as high as 10:1. The pH was neutral or was acidic. For each of the lauric acid derivatives as so prepared independently, there was no evidence of any growth inhibitory activity (growth inhibition) against representative bacteria tested in vitro, whether Gram-positive or Gram-negative.

[2] = Miscibility with water; assay type: physicochemical; conditions: mixed with water under agitated conditions
Description: (§1) Initially, to determine basic characteristics, each active component was separately mixed, generally under agitated conditions, with water, and each was miscible with water. Each, after being mixed with water, was tested in a broth microdilution assay, against a variety of bacteria using amounts of the each of the lauric acid derivatives, ranging from about 0.0009 wt. % to about 8 wt. %. The bacteria included Escherichia coli, and Staphylococcus aureus (including MRSA strains). The minimum inhibitory concentration (MIC) needed to prevent growth of the target bacteria was evaluated based on a method published by Clinical Laboratory Standards Institute (CLSI), broth microdilution method M-07 (M07). […] Each of the samples containing one of the lauric acid derivatives was compared with a positive control, decanoic acid.

[3] = test system: E. coli; assay: Broth microdilution MIC of lecithin/chitosan particle compositions; assay type: cell-based; conditions: lecithin/chitosan particle composition; prep. mixture pH 5 or pH 7; maximum concentration tested 10 mg/ml
Description: as §1
(§2) For TABLES 1 to 3, compositions were generally prepared as described above, and as further outlined in this paragraph. For these examples, the active component, as a lauric acid derivative or lauric acid, was suspended in an organic solvent, chloroform, and then mixed with water, under robust agitation. The amount of water to the amount of chloroform was at least about 2:1, and could be as high as 10:1. Chloroform was then evaporated (e.g., under vacuum using a freeze dryer). After removal of the chloroform, a 2.2% lecithin solution in an acetate buffer (e.g., 98 mM acetic acid and 2 mM sodium acetate) was prepared and added, so the final amount of the active component was about 1 part active component mixture and about 9 parts of the 2.2% lecithin solution. Of course, it is noted that other ranges to achieve final amount of the active component as described above (e.g., active component mixture and lecithin solution) may also be utilized. Cholesterol could also be optionally added. The mixture of lecithin and the active component was mixed and sonicated, and then a solution of about 1.5% chitosan was added. Thereafter, the entirety of the mixture containing the lecithin and the active component was further blended, in which a final ratio was about 1 part active component to about 9 parts of the 2.2% lecithin solution to about 10 parts of the 1.5% chitosan solution. The pH was then varied, to a pH of 5, or a pH of 7, or a pH of 9. In some mixtures having a pH of 7, a chemical agent imparting a positive charge to the chitosan was included in a form of glycol chitosan. In these tests, the chemical agent used was glycol. In these examples, the amount of chemical agent, glycol was about one molecule glycol moiety to one molecule chitosan sacharide unit; higher amounts of glycol moieties are also acceptable, while lower amounts of glycol moieties were often found to decrease overall inhibitory activity associated with a composition when formed and tested in vitro. It is noted that negatively charged chitosan containing particles were prepared. […] After mixing, the mixtures could each be filtered through a […] filter. In some tests, the mixtures were sonicated before filtering. Sonication produced small particles. In some studies, particles were freeze dried as a powder (generally, after mixing, sonicating and filtering).
(§3) The positive controls were prepared and evaluated in a similar manner. All prepared samples were tested using a broth microdilution test.

[4] = test system: S. epidermidis; assay: as above; assay type: cell-based; conditions: Staphylococcus epidermidis, lecithin/chitosan particle composition, prep. mixture pH 5 or pH 7, maximum concentration tested 10 mg/ml
Description: as §1, §2, §3

In the case of CCCCCCCCCC(=O)O [decanoic acid, reference compound], the “Growth inhibitory activity against representative bacteria” value [1] is reported as “did not demonstrate growth inhibitory activity”, the Miscibility with water [2] is reported as “not miscible in water” and the “MIC (mg/ml) for E. coli (chitosan prep. mixture was at pH 5 or at pH 7)” value [3] is reported as “— (no inhibitory activity)”. For the same compound, the MIC ([4]; Table 3, read-out: MIC (mg/ml) S. epidermidis (chitosan prep. mixture at pH 5 or at pH 7)) was 10 mg/mL and the MIC ([4]; read-out: MIC (mg/ml) for S. epidermidis (chitosan prep. mixture was at pH 5 or at pH 7)) was 10 mg/mL.
